Molecular target: T1, APOBEC3G (Homo sapiens, UniProt Q9HC16)
T1 construct: expressed in transfected cells; crude lysate treated with RNase A
Assay: Fluorescence-based APOBEC3G DNA cytosine deaminase assay for HTS, APOBEC3G containing cell lysate
Assay type: biochemical
Conditions: for inhibited cytosine deaminase activity (FIG. 5): LOPAC1280 library screened in quadruplicate, cell lysate
Description: FIG. 4 contains a schematic of a fluorescence based APOBEC3G DNA cytosine deaminase activity assay. The single-strand DNA oligonucleotide substrate has 3 features: i) an APOBEC3G deamination target cite 5′CCCA (with the 3rd C strongly preferred by APOBEC3G), ii) a fluorescent 6-FAM label on the 5′ end (excitable by 490 nm wavelength light) and iii) a 6-FAM ‘quenching’ molecule TAMRA on the 3′ end. This intact ssDNA substrate emits low levels of background fluorescence because the 6-FAM is quenched by the nearby TAMRA. Low-molecular mass (LMM) APOBEC3G, derived from an RNase sensitive high-molecular mass (HMM) cellular complex, efficiently deaminates the indicated cytosine base yielding a uracil. Uracil DNA glycosylase excises the uracil base, which creates an a-basic site that is sensitive to hydrolytic attack by the hydroxide ion of NaOH or heated water (H2O). Finally, cleavage of the ssDNA frees 6-FAM from inhibition by TAMRA and results in fluorescence (490 nm light is used to excite 6-FAM and fluorescence is detected at 517 nm).
APOBEC3G containing cell lysates were prepared from near-confluent APOBEC3G expressing 293 stable cell line (211-21, Harris et al., Cell 2003). DMEM growth medium was aspirated and the cells suspended in 1xPBS, 1 mM EDTA, pH 7.4. The cells were pelleted at 1.2K rpm for 5-10 minutes. The supernatant was aspirated and the tube containing the pelleted cells was placed on ice. Thirty mL of lysis buffer (25 mM HEPES, pH7.4, 150 mM NaCl, 0.5% Triton X-100, 1 mM EDTA, 1 mM MgCl2, 1 mM ZnCl2, 10% Glycerol, and Roche EDTA free complete protease inhibitor (added before use)) was added per 3-5 g cell pellet along with 20 μg/mL RNase A (from Qiagen, catalog no. 19101, 100 mg/ml RNase A solution) and the cells suspended by pipetting. The cells were transferred to a cold homogenizer and homogenized for 10 strokes. […] The protein concentration in the cell lysate was quantified using a Bio-Rad protein assay kit or DC protein assay kit, following the manufacturer's instructions.
A fluorescence-based deaminase activity assay for HTS was performed as follows: 1) 20 μl of the crude cell lysate (15 μg protein, diluted in cell lysis buffer, pH7.4) was placed into 384 well plates using Perkin Elmer flexdrop. […] 5) 3 μl N HCl+27 μl 2 M Tris.Cl (pH7.9) was added using Perkin Elmer flexdrop, mixed by shaking, and fluorescence read with excitation at 492 nm and emission at 517 nm at room temperature in LJL Analyst AD.
A 1280 compound library (LOPAC^1280™, from Sigma-Aldrich) was screened in quadruplicate using the method set forth in Example 1. […] In these experiments, each compound was evaluated a total of four times—twice on one day and twice more on the following day. […]

T1 sequence (Q9HC16 whole entry): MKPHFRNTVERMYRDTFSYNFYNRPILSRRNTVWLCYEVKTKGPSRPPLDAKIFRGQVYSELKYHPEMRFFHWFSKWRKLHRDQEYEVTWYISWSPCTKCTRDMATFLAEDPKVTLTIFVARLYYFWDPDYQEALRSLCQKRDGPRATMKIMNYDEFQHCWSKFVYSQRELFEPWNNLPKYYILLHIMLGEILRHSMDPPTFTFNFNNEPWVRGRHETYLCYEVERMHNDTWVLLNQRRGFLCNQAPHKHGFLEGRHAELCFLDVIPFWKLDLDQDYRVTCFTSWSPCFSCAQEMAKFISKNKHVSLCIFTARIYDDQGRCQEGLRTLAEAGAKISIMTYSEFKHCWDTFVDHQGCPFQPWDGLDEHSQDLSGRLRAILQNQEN

Row | inhibition at 10 µM (repeated screen, cell lysate incubated with 10 μM solution of the compound in DMSO, read-out: inhibition of fluorescence relative to positive controls (primary active)) [%] | Structure (SMILES) | inhibited cytosine deaminase activity (FIG. 5)
1 |  | Cc1nc(N=Nc2cc(S(=O)(=O)O)c3cc([N+](=O)[O-])cc(S(=O)(=O)O)c3c2)c(COP(=O)(O)O)c(C=O)c1O [PPNDS] | Inhibitors of cytosine deaminase
2 |  | O=C(O)c1cc[c]([Hg][Cl])cc1 [4-chloromercuribenzoic acid] | Inhibitors of cytosine deaminase
3 |  | O=C(O)C1=CC(=C(c2ccc(O)c(C(=O)O)c2)c2ccc(O)c(C(=O)O)c2)C=CC1=O [ATA] | Inhibitors of cytosine deaminase
4 | ≥ 35 | Cc1ccc(C(=O)Nc2ccc(S(=O)(=O)O)c3cc(S(=O)(=O)O)cc(S(=O)(=O)O)c23)cc1NC(=O)c1cccc(NC(=O)Nc2cccc(C(=O)Nc3cc(C(=O)Nc4ccc(S(=O)(=O)O)c5cc(S(=O)(=O)O)cc(S(=O)(=O)O)c45)ccc3C)c2)c1 [suramin] | 

Reference: patent US20110218158A1, “DNA CYTOSINE DEAMINASE INHIBITORS” (priority 2008, published 2011)
